According to patent publication US6630462B2, “Delta agonist analgesics” (Adolor Corporation, priority 2000, dated 2003):
Like-named read-outs stand apart in the source and are kept apart here.

How the values were obtained:
[1] = target: cloned human κ opioid receptor (Homo sapiens, UniProt P41145); test: Opioid receptor binding assay, [3H]diprenorphine, CHO cell membranes; conditions: for inhibition at 10 µM: [3H]diprenorphine binding
Protocol: (§1) Chinese hamster ovary (CHO) cells are stably transfected with the cloned human μ, κ, or δ opioid receptors. Cells are harvested by scraping them from the culture flask, centrifuging them at 1000×g for 10 min, resuspending them in buffer A and centrifuging again to remove growth medium. The cells are resuspended again in buffer A and homogenized for 30 seconds using a Polytron homogenizer (Brinkmann) at setting 8. The homogenate is centrifuged at 48,000×g for 10 min at 4° C. The pellets are resuspended at 1 mg of protein per mL of buffer A and aliquots stored at −80° C. until use. Buffer A is 50 mM Tris HCl, pH 7.8, containing 1.0 mM EGTA, 5 mM MgC12, 10 mg/mL leupeptin, 10 mg/mL pepstatin A, 200 mg/mL bacitracin, and 0.5 mg/mL aprotinin.
(§2) Receptor binding assays contain 0.4-1.0 nM [3H]diprenorphine (˜40,000 dpm), test compound as appropriate, and membrane preparation in a total volume of 0.5 mL buffer A. After incubation at room temperature for one hour, the samples are filtered through Whatman GF/B filters that have been presoaked in a solution of 0.5% (w/v) polyethylenimine and 0.1% (w/v) bovine serum albumin in water. The filters are rinsed 4×1 mL with cold 50 mM Tris HCl, pH 7.8 and radioactivity remaining on the filters is determined by scintillation spectroscopy. Ki values are determined by Cheng-Prusoff corrections of IC50 values derived from nonlinear regression fits of 12 point titration curves using the program Prism© (GraphPad Software, San Diego, Calif.).

[2] = target: cloned human μ opioid receptor (Homo sapiens, UniProt P35372); test: as above; conditions: for inhibition at 10 µM: read-out: % Inhibition @ 10 μM, μ
Protocol: as §1, §2

seizures in mice = test: Drug-induced seizures; format: in vivo; conditions: for induction of seizures: s.c., doses up to 30 mg/kg, observed 30 min
Protocol: Mice are injected s.c. with either vehicle (1:1:8, DMSO: Cremophor: Saline), clozapine (3-30 mg/kg), or DMCLZ (3-30 mg/kg). Immediately after injection, the mice are placed in individual plastic cages (30×16×12 cm) lined with bedding. The mice are observed for gross behavioral signs for 30 min, and the presence or absence of seizures is noted.
To determine the role of δ opioid receptors in mediating clozapine-induced seizures, mice are pretreated with either saline or the selective δ antagonist naltrindole (NTI) (1 mg/kg, s.c.) 20 min prior to treatment with vehicle or 30 mg/kg of clozapine.

[3] = target: cloned human δ opioid receptor (Homo sapiens, UniProt P41143); test: Opioid receptor binding assay, [3H]diprenorphine, CHO cell membranes; conditions: for Ki: cloned human δ receptor in CHO membranes, read-out: Ki, inhibition of [3H]diprenorphine binding, δ
Protocol: as §1
The filters are rinsed 4×1 mL with cold 50 mM Tris HCl, pH 7.8 and radioactivity remaining on the filters is determined by scintillation spectroscopy. Ki values are determined by Cheng-Prusoff corrections of IC50 values derived from nonlinear regression fits of 12 point titration curves using the program Prism© (GraphPad Software, San Diego, Calif.).

[4] = human patients; cited from earlier work
human δ opioid receptor = human δ opioid receptor (Homo sapiens, UniProt P41143); test: Opioid receptor-mediated stimulation of [35S]GTPγS binding; format: biochemical
Protocol: as §1, with “Buffer A is 50 mM Tris HCl, pH 7.8, containing 1.0 mM EGTA, 5 mM MgC12, 10 mg/mL leupeptin, 10 mg/mL pepstatin A, 200 mg/mL bacitracin, and 0.5 mg/mL aprotinin.” left out
Assays contain 80-100 pM [35S]GTPγS, […], 75 mM NaCl, 15 mM MgCl2, 1.0 mM EGTA, 2.1 mM dithiothreitol, 10 mg/mL leupeptin, 10 mg/mL pepstatin A, 200 mg/mL bacitracin, 0.5 mg/mL aprotinin, […] of membrane protein and agonist as appropriate in a final total volume of […] of 50 mM Tris HCl, pH 7.8 in 96 well Basic Flashplates® (NEN). After incubation for one hour at room temperature, the samples are centrifuged at 800×g at 4° C. for 5 min and the radioactivity (cpm) bound to the membranes is determined by scintillation spectrometry.
To determine the IC50 value, which is the concentration to give half-maximal inhibition of agonist-stimulated [35S]GTPγS binding, the cpm of [35S]GTPγS bound in the presence of a fixed concentration of agonist and various concentrations of antagonist is measured. […]

[5] = system: acetic acid-induced writhing; test: Acetic acid-induced writhing; format: in vivo, ICR mice; conditions: sc; mouse, s.c., 15 min before acetic acid
Protocol: Male ICR mice weighing 20-25 g are injected s.c. with either vehicle or test compound 15 min before they are injected intraperitoneally with 0.6% acetic acid. At 5 min after treatment with acetic acid, the number of writhes is counted for 10 min. Dose response curves are expressed as the percent inhibition of acetic acid induced writhing, when compared to the mean number of writhes observed in vehicle-treated mice.
The mean percent inhibition (%I) of acetic acid-induced writhing for drug-treated rats is calculated according to the following formula: [formula]
The mean individual response is the mean number of writhes in rats treated with test compound. The mean vehicle response is the mean number of writhes in rats treated with vehicle.

[6] = system: formalin-induced flinching, late phase; test: Formalin-induced flinching; format: in vivo, Sprague-Dawley rats; conditions: rat, 300 μg i.paw, late phase 20-35 min after formalin
Protocol: Male Sprague-Dawley rats weighing 80-120 g are injected s.c. with […] of a 5% formalin solution into the dorsal surface of the right hind paw (i.paw). The flinching behavior is quantified by counting the number of responses that occur during the tonic (late) phase of pain, lasting from 20-35 min after formalin injection. The test compounds are injected i.paw 10 min prior to the formalin injection. The mean percent antagonism (%A) of formalin-induced flinching for drug treated, formalin injected rats is calculated according to the following formula: %A=(Mean formalin response−Mean saline response)−Individual response×100/Mean formalin response−Mean saline response The mean formalin response is the mean number of flinches in rats treated with vehicle prior to the formalin injection. The mean saline response is the mean number of flinches in rats treated with […] saline instead of formalin.

[7] = 10 μM, [3H]diprenorphine binding

Chain of cloned human κ opioid receptor (P41145 whole entry): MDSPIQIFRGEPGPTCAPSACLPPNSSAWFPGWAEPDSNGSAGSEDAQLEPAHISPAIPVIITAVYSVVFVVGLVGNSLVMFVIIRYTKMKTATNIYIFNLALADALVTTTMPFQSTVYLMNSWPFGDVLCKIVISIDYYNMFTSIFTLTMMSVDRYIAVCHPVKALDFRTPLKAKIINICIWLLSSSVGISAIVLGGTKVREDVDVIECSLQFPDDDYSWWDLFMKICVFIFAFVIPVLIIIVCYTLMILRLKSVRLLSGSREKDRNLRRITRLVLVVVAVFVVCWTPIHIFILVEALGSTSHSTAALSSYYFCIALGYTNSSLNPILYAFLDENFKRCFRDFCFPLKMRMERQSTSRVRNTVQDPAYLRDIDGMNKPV
Chain of cloned human δ opioid receptor (P41143 whole entry): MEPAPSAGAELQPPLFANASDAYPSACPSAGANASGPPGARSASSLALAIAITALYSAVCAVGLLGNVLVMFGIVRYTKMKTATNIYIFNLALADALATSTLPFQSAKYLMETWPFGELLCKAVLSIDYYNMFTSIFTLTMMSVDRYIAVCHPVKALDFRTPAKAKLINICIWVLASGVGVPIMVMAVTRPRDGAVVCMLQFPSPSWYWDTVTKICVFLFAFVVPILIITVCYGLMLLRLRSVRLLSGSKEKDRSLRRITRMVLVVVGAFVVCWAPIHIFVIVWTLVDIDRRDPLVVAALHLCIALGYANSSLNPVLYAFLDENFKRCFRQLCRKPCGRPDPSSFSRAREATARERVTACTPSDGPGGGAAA
Chain of cloned human μ opioid receptor (P35372 whole entry): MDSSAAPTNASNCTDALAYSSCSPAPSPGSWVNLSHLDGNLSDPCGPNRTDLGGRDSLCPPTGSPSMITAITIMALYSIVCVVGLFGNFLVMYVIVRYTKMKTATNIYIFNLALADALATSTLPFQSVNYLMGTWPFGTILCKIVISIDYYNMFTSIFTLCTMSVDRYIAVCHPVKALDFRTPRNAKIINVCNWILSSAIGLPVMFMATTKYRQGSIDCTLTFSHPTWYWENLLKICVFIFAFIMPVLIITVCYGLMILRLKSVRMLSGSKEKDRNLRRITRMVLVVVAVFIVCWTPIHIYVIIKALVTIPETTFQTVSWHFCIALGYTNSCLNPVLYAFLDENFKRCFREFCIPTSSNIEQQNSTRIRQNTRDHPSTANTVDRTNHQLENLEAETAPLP
Chain of human δ opioid receptor (P41143 whole entry): as the sequence (P41143 whole entry) above

CN1CCN(C2=Nc3cc(Cl)ccc3Nc3ccccc32)CC1 [Clozapine, 8-chloro-11-(4-methyl-1-piperazinyl)-5H-dibenzo[b,e][1,4]-diazepine]
inhibition at 10 µM [1]: 11% | inhibition at 10 µM [2, 7]: 17% | blockade of clozapine-induced seizures by the selective δ antagonist naltrindole (seizures in mice; naltrindole 1 mg/kg s.c. 20 min before 30 mg/kg clozapine): not blocked | Ki [3]: 928 nM

C=CCN1C[C@H](C)N([C@H](c2ccc(C(=O)N(CC)CC)cc2)c2cccc(OC)c2)C[C@H]1C [SNC-80]
inhibition at 1 µM ([1]; read-out: % Inhibition @ 1.0 μM, κ): 2% | inhibition at 10 µM [2]: 5.5%

Clc1ccc2c(c1)N=C(N1CCNCC1)c1ccccc1N2 [N-desmethylclozapine]
inhibition at 10 µM [1]: 64% | inhibition at 10 µM [2, 7]: 17% | plasma level [4]: ~620 nM | induction of seizures (seizures in mice): does not induce seizures | induction of seizures (seizures in mice; listed as DMCLZ): does not produce seizures | EC50 (human δ opioid receptor): 290 nM | agonist character at the human δ opioid receptor (human δ opioid receptor; FIG. 3): full agonist | Ki [3]: 24 nM | ED50 [5]: 2.2 mg/kg | percent antagonism (% A) of formalin-induced flinching [6]: 56 % A

C=CCN1C[C@H](C)N([C@H](c2ccc(C(=O)N(CC)CC)cc2)c2cccc(O)c2)C[C@H]1C [BW373U86]
Ki ([1]; cloned human κ receptor in CHO membranes, read-out: Ki, inhibition of [3H]diprenorphine binding, κ): 149 nM | Ki ([2]; cloned human μ receptor in CHO membranes, read-out: Ki, inhibition of [3H]diprenorphine binding, μ): 96 nM

Clc1ccc2c(c1)C(N1CCNCC1)=Nc1ccccc1O2 [Amoxapine]
inhibition at 10 µM [1]: 25% | inhibition at 10 µM [2, 7]: 18%

CN1CCN(C2=Nc3ccccc3Oc3ccc(Cl)cc32)CC1 [Loxapine]
inhibition at 10 µM [1]: 27% | inhibition at 10 µM [2, 7]: 0% | inhibition at 10 µM [3, 7]: 26%
